Experimental data published in patent publication US20210221822A1, “TRICYCLIC DERIVATIVES INHIBITOR, PREPARATION METHOD, AND APPLICATIONS THEREOF” (Jiangsu Hansoh Pharmaceutical Group Co., Ltd., priority 2018, published 2021).
pIC50: −log10 of the molar value.

How the values were obtained:
[1] = biological target: T1, PI3Kα (Homo sapiens, UniProt P42336); assay: ADP-Glo lipid kinase assay, PI3Kα kinase activity; type: biochemical
T1 construct: purchased Promega V1721
How it was run: (§1)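 ADP-Glo luminescence measured ADP formed by PI3Kα, β, γ or δ (0.1-2 nM working solution) with PIP2:3PS (50 μM added solution) and ATP in HEPES/MgCl2/NaCl/BSA buffer, 90 to 120 min at room temperature. % inhibition was set against DMSO and no-kinase controls, and IC50 came from a four-parameter fit.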

[2] = biological target: T2, PI3Kβ (Homo sapiens, UniProt P42338); assay: ADP-Glo lipid kinase assay, PI3Kβ kinase activity; type: biochemical; conditions: 0.4 nM enzyme, 90 min, 100 μM ATP
T2 construct: purchased Carna 11-102
T2 sequence (P42338 whole entry): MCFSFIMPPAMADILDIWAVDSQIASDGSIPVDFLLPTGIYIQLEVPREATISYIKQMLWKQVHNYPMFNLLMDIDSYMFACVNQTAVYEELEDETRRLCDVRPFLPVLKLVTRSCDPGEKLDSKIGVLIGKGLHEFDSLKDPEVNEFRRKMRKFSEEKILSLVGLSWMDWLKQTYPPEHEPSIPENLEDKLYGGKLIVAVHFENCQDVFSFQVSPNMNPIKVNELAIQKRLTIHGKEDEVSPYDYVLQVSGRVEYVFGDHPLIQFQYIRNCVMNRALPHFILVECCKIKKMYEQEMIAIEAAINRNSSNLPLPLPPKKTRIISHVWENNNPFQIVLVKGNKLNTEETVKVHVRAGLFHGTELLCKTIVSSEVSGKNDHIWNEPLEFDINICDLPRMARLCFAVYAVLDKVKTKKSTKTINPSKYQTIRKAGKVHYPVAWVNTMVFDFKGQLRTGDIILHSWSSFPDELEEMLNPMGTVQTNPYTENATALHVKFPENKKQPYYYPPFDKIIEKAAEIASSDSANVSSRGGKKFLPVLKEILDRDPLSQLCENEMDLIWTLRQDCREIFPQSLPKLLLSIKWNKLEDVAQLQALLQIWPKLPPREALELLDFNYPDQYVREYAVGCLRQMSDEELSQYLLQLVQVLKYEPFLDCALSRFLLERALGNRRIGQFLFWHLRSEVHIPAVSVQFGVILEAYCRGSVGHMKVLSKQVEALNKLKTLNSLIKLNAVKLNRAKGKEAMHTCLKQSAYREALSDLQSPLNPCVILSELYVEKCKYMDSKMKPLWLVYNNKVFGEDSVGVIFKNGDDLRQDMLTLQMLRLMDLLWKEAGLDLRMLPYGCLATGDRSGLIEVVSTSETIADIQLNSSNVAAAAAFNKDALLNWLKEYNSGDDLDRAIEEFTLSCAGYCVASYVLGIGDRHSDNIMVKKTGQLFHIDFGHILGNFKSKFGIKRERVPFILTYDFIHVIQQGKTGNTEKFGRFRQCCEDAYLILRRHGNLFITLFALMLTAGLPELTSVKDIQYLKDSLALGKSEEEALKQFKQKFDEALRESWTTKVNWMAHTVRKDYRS
T2 sequence (P27986 whole entry partner): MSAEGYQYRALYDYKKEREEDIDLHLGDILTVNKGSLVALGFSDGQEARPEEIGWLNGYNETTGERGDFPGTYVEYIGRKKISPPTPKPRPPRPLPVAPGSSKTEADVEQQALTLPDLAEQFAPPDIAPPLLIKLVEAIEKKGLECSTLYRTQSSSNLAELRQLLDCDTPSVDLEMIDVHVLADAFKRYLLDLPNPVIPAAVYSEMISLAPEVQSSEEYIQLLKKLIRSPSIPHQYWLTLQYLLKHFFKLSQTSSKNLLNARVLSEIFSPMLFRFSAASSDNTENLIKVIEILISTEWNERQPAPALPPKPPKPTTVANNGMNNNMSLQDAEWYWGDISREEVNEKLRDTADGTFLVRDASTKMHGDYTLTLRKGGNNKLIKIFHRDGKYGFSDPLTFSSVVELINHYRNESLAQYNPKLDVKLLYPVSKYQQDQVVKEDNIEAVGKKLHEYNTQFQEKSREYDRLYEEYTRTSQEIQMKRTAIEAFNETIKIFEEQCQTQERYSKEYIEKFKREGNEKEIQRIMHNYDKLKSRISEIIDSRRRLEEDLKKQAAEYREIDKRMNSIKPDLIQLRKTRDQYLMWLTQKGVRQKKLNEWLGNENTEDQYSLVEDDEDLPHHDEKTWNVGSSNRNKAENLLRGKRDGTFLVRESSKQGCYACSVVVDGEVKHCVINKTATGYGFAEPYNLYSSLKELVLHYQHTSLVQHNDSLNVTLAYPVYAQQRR
How it was run: as §1

[3] = biological target: T3, PI3Kγ (Homo sapiens, UniProt P48736); assay: ADP-Glo lipid kinase assay, PI3Kγ kinase activity; type: biochemical; conditions: 0.4 nM enzyme, 120 min, 50 μM ATP
T3 construct: purchased Thermofisher PV4786
T3 sequence (P48736 whole entry): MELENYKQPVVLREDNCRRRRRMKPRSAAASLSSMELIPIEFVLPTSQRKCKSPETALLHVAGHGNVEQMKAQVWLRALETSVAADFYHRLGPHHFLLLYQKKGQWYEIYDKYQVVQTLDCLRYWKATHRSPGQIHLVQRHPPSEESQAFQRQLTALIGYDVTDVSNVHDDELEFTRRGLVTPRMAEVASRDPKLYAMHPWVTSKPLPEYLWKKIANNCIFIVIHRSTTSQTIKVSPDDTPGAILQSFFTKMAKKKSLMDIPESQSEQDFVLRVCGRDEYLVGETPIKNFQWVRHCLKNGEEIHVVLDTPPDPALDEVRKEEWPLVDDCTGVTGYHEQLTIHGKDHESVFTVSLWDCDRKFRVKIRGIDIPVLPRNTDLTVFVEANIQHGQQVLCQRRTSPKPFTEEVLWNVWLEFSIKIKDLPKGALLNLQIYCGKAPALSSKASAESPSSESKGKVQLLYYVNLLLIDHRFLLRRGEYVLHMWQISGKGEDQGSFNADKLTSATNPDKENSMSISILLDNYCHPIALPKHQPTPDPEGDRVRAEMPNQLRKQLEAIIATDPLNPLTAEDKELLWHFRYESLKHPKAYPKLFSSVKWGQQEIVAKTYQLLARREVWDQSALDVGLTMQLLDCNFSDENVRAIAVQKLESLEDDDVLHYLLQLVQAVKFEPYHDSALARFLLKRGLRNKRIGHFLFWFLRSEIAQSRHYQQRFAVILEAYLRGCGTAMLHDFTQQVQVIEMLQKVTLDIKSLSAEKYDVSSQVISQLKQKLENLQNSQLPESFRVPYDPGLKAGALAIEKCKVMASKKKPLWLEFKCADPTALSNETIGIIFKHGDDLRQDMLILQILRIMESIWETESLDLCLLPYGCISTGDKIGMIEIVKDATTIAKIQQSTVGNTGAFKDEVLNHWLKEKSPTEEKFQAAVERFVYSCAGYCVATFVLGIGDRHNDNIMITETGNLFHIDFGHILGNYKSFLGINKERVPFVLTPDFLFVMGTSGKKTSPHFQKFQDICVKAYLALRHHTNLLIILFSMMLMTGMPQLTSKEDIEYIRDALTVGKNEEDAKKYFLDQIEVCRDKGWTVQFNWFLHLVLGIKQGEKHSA
How it was run: as §1

[4] = biological target: T4, PI3Kδ (Homo sapiens, UniProt O00329); assay: ADP-Glo lipid kinase assay, PI3Kδ kinase activity; type: biochemical; conditions: 0.1 nM enzyme, 90 min, 100 μM ATP
T4 construct: purchased Carna 11-103
T4 sequence (O00329 whole entry): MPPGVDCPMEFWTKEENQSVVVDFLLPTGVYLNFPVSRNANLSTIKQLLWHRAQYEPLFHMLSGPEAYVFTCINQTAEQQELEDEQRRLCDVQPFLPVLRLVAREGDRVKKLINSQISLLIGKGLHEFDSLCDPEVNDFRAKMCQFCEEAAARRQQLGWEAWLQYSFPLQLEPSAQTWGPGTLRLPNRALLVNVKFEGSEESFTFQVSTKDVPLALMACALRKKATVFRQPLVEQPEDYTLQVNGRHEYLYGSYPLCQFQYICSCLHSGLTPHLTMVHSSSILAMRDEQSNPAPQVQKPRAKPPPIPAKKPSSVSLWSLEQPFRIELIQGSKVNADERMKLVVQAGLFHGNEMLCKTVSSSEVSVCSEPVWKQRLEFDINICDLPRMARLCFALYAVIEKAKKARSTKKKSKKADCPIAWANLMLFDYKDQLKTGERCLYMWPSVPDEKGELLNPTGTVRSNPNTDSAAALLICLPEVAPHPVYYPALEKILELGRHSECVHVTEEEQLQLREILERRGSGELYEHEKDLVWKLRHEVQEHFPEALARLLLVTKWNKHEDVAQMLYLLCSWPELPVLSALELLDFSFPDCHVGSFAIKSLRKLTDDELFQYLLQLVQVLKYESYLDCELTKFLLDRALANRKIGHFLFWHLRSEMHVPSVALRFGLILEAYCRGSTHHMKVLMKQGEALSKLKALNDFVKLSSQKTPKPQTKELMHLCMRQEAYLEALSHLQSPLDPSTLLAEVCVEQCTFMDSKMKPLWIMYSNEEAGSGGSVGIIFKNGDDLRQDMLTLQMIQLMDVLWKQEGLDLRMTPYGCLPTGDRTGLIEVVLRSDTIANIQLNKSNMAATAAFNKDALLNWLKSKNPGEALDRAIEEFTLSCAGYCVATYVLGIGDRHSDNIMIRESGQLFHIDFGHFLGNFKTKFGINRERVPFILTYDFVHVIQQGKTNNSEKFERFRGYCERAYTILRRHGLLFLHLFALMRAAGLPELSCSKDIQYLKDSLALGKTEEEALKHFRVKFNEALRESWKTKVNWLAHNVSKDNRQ
T4 sequence (P27986 whole entry partner): as the sequence (P27986 whole entry partner) above
How it was run: as §1

[5] = system: PI3Kα mutant cancer cells HCC1954 (H1047R); assay: Cell Titer-Glo proliferation inhibition, HCC1954; type: cell-based; conditions: Homo sapiens, 48 to 96 hours
Description: (§2) Experimental method: The proliferation inhibitory effect of the compounds of the examples on PI3Kα mutant cancer cell lines HCC1954, HGC-27 and MKN1 was determined by Cell Titer-Glo method. The cell lines were cultured in RPMI 1640 medium (Gibco #22400089) containing 10% FBS (Gibco #10091148) and 1% P/S (Hyclone #SV30010) at 37° C. and 5% CO2. Before the experiment, the cells were collected and counted, and then the cell density was adjusted. The cells were inoculated in a white 96-well plate (Corning #3610) at a density of 1000 to 10000 cells/well, and incubated in an incubator at 37° C., 5% CO2 overnight. The compound solution of different concentrations was added, and corresponding vehicle control was set at the same time. The cell plate was further incubated in an incubator at 37° C., 5% CO2 for 48 to 96 hours. The cell plate and its content were equilibrated to room temperature. 20 to 100 μL of Cell Titer-Glo solution (Promega #G7573) was added to each well, and the plate was shaked well and incubated at room temperature in the dark for 5 to 30 minutes. The chemiluminescence value was measured by the BioTek SynergyH1 microplate reader.
(§3) The percentage inhibition data of the well treated by the compounds of the examples was calculated through the vehicle control well on the plate {% inhibition rate=100−(test compound value/vehicle control value)×100}. The IC50 value was calculated by fitting the data of different concentrations and corresponding percentage inhibition rates to a four-parameter nonlinear logic formula with GraphPad prism.

[6] = system: PI3Kα mutant cancer cells MKN1 (E545K); assay: Cell Titer-Glo proliferation inhibition, MKN1; type: cell-based; conditions: Homo sapiens, MKN-1, 48 to 96 hours
Description: as §2, §3

[7] = system: PI3Kα mutant cancer cells HGC-27 (E542K); assay: Cell Titer-Glo proliferation inhibition, HGC-27; type: cell-based; conditions: Homo sapiens, 48 to 96 hours
Description: as §2, §3

T1 sequence (P42336 whole entry): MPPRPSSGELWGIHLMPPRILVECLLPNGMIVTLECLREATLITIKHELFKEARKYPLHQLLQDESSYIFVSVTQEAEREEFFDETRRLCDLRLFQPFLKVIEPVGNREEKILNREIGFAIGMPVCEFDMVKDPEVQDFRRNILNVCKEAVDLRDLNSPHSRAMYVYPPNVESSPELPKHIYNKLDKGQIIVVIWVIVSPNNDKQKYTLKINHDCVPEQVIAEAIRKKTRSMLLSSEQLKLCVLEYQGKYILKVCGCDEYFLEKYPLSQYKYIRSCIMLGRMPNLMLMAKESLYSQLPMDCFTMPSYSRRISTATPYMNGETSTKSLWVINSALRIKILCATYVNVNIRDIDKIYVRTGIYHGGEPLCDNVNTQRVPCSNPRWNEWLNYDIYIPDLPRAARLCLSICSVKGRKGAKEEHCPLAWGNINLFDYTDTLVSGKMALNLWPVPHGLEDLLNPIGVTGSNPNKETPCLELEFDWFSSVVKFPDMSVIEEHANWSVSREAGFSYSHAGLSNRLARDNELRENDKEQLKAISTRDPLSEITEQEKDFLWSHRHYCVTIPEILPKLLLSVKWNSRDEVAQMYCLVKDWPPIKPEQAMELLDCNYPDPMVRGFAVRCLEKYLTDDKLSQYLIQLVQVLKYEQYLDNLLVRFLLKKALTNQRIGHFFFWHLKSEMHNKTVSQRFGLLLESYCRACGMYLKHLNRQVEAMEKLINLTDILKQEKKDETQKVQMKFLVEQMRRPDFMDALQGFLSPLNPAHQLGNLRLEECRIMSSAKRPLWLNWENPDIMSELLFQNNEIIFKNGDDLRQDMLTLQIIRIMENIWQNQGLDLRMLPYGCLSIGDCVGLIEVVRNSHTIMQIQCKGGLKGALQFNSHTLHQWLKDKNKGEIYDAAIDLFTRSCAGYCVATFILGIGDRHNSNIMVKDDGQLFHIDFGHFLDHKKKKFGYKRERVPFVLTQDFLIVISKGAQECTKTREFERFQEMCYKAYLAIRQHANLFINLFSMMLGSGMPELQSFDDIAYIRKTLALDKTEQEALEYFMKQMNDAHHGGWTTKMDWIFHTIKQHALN
T1 sequence (P27986 whole entry partner): as the sequence (P27986 whole entry partner) above

C[C@H](Nc1ccc2c(c1)OCCn1cc(N3C(=O)SC[C@H]3CC#N)nc1-2)C(N)=O [Example 119, (S)-2-((2-((R)-4-(cyanomethyl)-2-oxothiazolidin-3-yl)-5,6-dihydrobenzo[f]imidazo[1,2-d][1,4]oxazepin-9-yl)amino)propanamide]
pIC50 ([1]; ADP-Glo, 0.1 nM enzyme, 120 min, 50 μM ATP): 8.62 | Selectivity of PI3Kα vs PI3Kβ ([1]; ratio of IC50 PI3Kβ to IC50 PI3Kα): 170 | Selectivity of PI3Kα vs PI3Kγ ([1]; ratio of IC50 PI3Kγ to IC50 PI3Kα): 48 | Selectivity of PI3Kα vs PI3Kδ ([1]; ratio of IC50 PI3Kδ to IC50 PI3Kα): 30 | pIC50 [2]: 6.39 | pIC50 [3]: 6.94 | pIC50 [4]: 7.15 | pIC50 [5]: 6.87 | pIC50 [6]: 6.52 | pIC50 [7]: 6.45
